Several values for one entry are separate records, joined by “and”; a condition that tells them apart may be missing. Equal entries are not always repeated.
How the values were obtained:
[1] = molecular target: cAMP-activated basolateral K+ channels (KCNQ1/KCNE3) (Homo sapiens, UniProt P51787); settings: T84 cells, 30 µM
[2] = molecular target: T1, Na+-K+-Cl− cotransporter (NKCC1) (Homo sapiens, UniProt P55011); test: Thallium (Tl+) influx-based fluorescent assay of NKCC1 activity in T84 cells; type: cell-based
T1 sequence (P55011 1-1212): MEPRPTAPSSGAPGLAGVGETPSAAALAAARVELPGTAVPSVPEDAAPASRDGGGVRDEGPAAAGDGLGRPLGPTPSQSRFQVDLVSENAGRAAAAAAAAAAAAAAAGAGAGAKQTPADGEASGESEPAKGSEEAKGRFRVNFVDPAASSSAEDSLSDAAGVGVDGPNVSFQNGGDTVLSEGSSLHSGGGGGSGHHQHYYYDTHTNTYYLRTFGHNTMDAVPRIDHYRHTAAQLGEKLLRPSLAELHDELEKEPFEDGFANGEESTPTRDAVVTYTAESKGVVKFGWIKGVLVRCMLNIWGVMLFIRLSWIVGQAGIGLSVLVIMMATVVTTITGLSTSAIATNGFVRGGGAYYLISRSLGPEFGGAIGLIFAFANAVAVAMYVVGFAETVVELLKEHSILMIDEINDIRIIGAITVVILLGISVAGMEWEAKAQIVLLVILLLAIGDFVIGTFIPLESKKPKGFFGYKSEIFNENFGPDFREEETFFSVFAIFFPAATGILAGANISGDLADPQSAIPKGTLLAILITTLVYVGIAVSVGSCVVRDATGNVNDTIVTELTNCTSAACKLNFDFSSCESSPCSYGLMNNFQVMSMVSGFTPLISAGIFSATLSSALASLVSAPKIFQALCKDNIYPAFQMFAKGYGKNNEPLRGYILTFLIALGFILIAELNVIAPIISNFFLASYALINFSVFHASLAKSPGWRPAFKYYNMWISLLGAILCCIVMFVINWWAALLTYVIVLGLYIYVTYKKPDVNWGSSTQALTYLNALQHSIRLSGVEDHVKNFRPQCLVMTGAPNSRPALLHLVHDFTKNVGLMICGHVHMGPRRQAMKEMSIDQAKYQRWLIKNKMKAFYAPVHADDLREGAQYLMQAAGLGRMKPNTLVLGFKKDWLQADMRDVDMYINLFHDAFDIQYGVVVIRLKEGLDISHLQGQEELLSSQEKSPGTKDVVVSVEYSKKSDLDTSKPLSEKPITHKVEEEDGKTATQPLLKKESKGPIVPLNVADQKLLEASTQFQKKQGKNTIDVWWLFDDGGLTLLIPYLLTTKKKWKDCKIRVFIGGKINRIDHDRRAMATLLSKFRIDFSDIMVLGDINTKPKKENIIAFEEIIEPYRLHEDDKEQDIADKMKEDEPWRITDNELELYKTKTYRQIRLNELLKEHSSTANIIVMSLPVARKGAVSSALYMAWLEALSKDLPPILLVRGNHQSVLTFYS

[3] = tested on: forskolin-induced Cl− secretion in mouse intestinal sheets
T84 cells = test: MTT assay of T84 cell viability; settings: 24-h exposure, 10 µM to 200 µM
CFTR Cl− channel [4] = molecular target: T2, CFTR Cl− channel (Homo sapiens, UniProt P13569); test: Apical Cl− current analysis of CFTR Cl− channel activity in basolaterally permeabilized T84 cells; type: cell-based
[5] = tested on: intracellular cAMP levels in T84 cells; test: Intracellular cAMP measurement (cAMP immunoassay) in T84 cells; type: cell-based, human; settings: 200 µM, 1 h, basal and forskolin-stimulated (20 µM) conditions
Protocol: Intracellular cAMP levels in T84 cells were measured using cAMP immunoassays (R&D Systems, Minneapolis, Minnesota, USA). T84 cells were seeded on 24-well plates at a density of 10^6 cells/well and grown for 24 h in a humidified 5% CO2/[…] incubator at 37°C. […] Thereafter, cells were lysed with cell lysis buffer and level of intracellular cAMP was measured according to the manufacturer's instructions.
Data are expressed as means ± S.E.M. NS, non-statistical difference (n = 3).

Na+-K+ ATPase = Na+-K+ ATPase activity (ouabain-sensitive short-circuit current) in T84 cells; type: cell-based, human; settings: pretreatment 200 µM
Protocol: After stabilization of the amphotericin B-induced rise in Isc, ouabain (1 mM) was added into the basolateral solution and the values of ouabain-sensitive current were used to represent the activity of Na^+-K^+ ATPases.
In this method, apical membrane was permeabilized by amphotericin B (250 µg/ml) and a K^+ gradient ([K^+]apical>[K^+]basolateral) was established using asymmetrical K^+ buffers in the presence of ouabain in basolateral solutions (to prevent current generated by Na^+-K^+ ATPases) (Fig. 5A, inset). The basolateral K^+ current elicited by an addition of cell-permeable cAMP (e.g. CPT-cAMP) would, therefore, reflect the activity of cAMP-activated K^+ channels located in the basolateral membrane of T84 cells (i.e. KCNQ1/KCNE3 K^+ channels). […] In this protocol, intracellular Na^+ loading by amphotericin B-induced permeabilization of apical membrane stimulated Na^+-K^+ ATPase activity, resulting in an increase in Isc (Fig. 5B, inset). […]
Na^+-K^+ ATPase activity was estimated from values of ouabain-sensitive short-circuit current, which was induced by intracellular Na^+ loading following amphotericin B (250 µg/ml)-induced apical membrane permeabilization. […] Summary of data is expressed as means of ouabain-sensitive short-circuit current ± S.E.M. (n = 6–8).

[6] = tested on: cholera toxin (CT)-induced Cl− secretion in T84 cells; test: cells; type: cell-based; settings: Homo sapiens
[7] = tested on: V. cholerae-induced intestinal fluid secretion; test: Mouse closed-loop model of cholera induced by V. cholerae; type: in vivo; settings: mice, 30 mg/kg intraperitoneal, 10^7 CFU/loop, 12 h, loop weight/length ratio
[8] = tested on: Ca2+-activated Cl− channel (CaCC); test: Apical Cl− current analysis of ATP-stimulated CaCC in T84 cells
[9] = tested on: CT-induced intestinal fluid secretion; test: Mouse closed-loop model of cholera induced by CT; type: in vivo; settings: mice, 30 mg/kg intraperitoneal, CT 1 µg/loop, 4 h, loop weight/length ratio
[10] = molecular target: Ca2+-activated basolateral K+ channels (KCa3.1) (Homo sapiens, UniProt O15554); test: Basolateral K+ current analysis of ATP-stimulated Ca2+-activated basolateral K+ channels in T84 cells; type: cell-based; settings: BaCl2 5 mM, ATP 100 µM
Protocol: High K^+ apical solution contained (pH 7.3) 142.5 mM K-gluconate, 1.25 mM CaCl2, 0.40 mM MgSO4, 0.43 mM […], 0.35 mM Na2HPO4, 10 mM Na-HEPES and 5.6 mM glucose. In low K^+ basolateral solution, concentration of K-gluconate was reduced to 5.4 mM and 136.9 mM N-methyl-glucamine was added. Before basolateral K^+ current measurements, apical membrane of T84 cells was permeabilized by amphotericin B (250 µg/ml) and ouabain (1 mM) was added into basolateral solution to prevent current contributed by Na^+-K^+ ATPase.

[11] = tested on: phosphorylated Ca2+/calmodulin-dependent protein kinase II (CaMKII); test: Immunoblot analysis of ATP-induced CaMKII phosphorylation in T84 cells; type: cell-based, human; settings: 20 min, ATP 100 µM plus diclofenac 20 µM
Protocol: Proteins were extracted using lysis buffers containing (pH 7.4) 1% Triton X-100, 50 mM Tris-HCl, 150 mM NaCl, 1 mM EDTA, 1 mM NaF, 1 mM Na3VO4, 1 mM PMSF and protease inhibitor (PI) cocktail. Protein concentration was determined using a Lowry method. Equal amounts of proteins were loaded on sodium dodecyl sulfate polyacrylamide gel electrophoresis and transferred to a nitrocellulose membrane. […] The secondary antibodies were horseradish peroxidase-conjugated anti-rabbit IgG antibodies. The immunoblot was visualized using a chemiluminescence detection method.

[12] = tested on: inwardly rectifying Cl− channel (IRC); test: Apical Cl− current analysis of forskolin-stimulated IRC in T84 cells
CFTR Cl− channel [13] = molecular target: T2, CFTR Cl− channel; test: Apical Cl− current analysis of CFTR Cl− channel activity in Calu-3 cells; type: cell-based; settings: CPT-cAMP
T84 cell monolayers = test: Barrier function assay (FITC-dextran flux) in T84 cell monolayers; settings: 24-h treatment, 3 mM
[14] = tested on: cholera toxin (CT)-induced intestinal fluid secretion; settings: mouse, in vivo; cited from earlier work
[15] = tested on: live V. cholerae-induced intestinal fluid secretion; settings: mice; ref [17], [38]; cited from earlier work

T2 sequence (P13569 whole entry): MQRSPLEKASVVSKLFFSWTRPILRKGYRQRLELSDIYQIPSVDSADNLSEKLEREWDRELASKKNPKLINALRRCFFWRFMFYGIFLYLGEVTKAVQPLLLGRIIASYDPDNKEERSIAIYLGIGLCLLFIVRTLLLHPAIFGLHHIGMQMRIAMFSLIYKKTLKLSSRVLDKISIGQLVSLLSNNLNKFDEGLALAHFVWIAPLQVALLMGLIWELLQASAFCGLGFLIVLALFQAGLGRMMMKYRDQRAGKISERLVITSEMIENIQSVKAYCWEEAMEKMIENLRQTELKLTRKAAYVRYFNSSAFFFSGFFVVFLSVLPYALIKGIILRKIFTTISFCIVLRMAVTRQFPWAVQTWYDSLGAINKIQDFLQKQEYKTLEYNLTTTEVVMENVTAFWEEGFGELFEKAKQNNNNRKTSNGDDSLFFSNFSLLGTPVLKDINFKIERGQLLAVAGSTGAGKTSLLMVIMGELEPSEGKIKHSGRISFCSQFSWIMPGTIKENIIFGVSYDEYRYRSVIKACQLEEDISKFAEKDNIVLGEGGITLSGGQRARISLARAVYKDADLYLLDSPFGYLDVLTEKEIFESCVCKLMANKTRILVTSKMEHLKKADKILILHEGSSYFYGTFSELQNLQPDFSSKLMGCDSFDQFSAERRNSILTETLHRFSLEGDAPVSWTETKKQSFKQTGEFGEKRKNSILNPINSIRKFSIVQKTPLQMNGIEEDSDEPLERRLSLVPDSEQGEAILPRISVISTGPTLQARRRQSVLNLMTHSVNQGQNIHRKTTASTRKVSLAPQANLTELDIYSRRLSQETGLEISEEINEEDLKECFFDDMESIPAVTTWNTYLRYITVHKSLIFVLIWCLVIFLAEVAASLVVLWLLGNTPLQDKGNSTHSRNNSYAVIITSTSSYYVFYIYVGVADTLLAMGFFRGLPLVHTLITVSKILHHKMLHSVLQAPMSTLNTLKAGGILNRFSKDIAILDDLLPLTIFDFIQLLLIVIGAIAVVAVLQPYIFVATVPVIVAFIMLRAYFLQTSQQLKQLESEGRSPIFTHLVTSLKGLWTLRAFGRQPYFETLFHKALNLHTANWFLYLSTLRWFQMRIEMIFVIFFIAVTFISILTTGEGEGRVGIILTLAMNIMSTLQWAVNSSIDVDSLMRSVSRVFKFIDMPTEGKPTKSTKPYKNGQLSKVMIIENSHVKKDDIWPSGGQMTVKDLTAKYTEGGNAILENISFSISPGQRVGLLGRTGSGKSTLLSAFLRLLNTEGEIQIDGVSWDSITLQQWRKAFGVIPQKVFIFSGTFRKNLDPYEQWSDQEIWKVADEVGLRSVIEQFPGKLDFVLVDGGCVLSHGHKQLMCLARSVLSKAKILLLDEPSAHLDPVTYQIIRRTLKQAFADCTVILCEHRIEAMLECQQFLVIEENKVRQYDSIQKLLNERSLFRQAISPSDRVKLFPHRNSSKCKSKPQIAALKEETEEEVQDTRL
Chain of Ca2+-activated basolateral K+ channels (KCa3.1) (O15554 whole entry): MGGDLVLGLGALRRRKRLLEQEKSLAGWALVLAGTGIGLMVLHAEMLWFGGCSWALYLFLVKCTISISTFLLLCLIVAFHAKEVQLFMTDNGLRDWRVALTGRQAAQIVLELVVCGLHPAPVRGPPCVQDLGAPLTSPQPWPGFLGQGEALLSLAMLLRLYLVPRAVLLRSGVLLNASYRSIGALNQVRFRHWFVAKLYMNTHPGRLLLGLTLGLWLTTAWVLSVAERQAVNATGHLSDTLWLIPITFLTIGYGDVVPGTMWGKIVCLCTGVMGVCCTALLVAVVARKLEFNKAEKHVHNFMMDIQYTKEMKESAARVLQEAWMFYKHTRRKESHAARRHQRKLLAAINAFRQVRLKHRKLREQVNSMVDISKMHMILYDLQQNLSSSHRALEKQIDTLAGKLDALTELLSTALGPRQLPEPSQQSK
Chain of cAMP-activated basolateral K+ channels (KCNQ1/KCNE3) (Q9Y6H6 whole entry): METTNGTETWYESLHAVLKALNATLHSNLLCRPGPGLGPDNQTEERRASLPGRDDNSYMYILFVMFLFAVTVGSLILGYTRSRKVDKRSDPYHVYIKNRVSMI
Chain of cAMP-activated basolateral K+ channels (KCNQ1/KCNE3) (P51787 whole entry): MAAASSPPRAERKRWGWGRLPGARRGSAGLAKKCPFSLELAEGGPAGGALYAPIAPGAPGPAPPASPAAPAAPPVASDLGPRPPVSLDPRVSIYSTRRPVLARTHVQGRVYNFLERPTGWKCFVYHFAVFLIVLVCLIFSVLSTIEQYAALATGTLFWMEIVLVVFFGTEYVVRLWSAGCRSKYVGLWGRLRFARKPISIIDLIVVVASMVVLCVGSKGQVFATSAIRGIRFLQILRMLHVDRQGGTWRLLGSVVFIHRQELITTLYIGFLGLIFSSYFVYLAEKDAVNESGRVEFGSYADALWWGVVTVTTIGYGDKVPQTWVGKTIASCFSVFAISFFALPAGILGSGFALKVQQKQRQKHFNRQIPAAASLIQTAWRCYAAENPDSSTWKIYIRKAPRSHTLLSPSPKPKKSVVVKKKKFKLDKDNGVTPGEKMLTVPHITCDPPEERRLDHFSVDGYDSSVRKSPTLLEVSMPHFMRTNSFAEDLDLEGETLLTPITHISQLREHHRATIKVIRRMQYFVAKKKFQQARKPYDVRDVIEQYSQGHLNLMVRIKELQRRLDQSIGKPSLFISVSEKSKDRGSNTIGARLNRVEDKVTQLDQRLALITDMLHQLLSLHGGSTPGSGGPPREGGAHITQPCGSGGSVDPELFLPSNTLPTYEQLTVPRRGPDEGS

Clc1ccccc1C(c1ccccc1)(c1ccccc1)n1ccnc1 [clotrimazole]
effect on CPT-cAMP-induced basolateral K+ current [1]: markedly inhibited

CCCCNc1cc(C(=O)O)cc(S(N)(=O)=O)c1Oc1ccccc1 [bumetanide]
effect on Tl+ influx (NKCC1 activity), positive control ([2]; 100 µM): completely prevented

O=C(O)Cc1ccccc1Nc1c(Cl)cccc1Cl [diclofenac]
effect on forskolin-induced Cl− secretion in mouse intestinal sheets [3]: inhibited | effect on T84 cell viability (MTT) (T84 cells): did not affect | reversibility of inhibition of CFTR-mediated apical Cl− current (CFTR Cl− channel [4]; 20 µM, after removal from bathing solutions): reversible | IC50 (CFTR Cl− channel [4]; CPT-cAMP 100 µM, read-out: IC50, inhibition of apical Cl− current induced by CPT-cAMP): 8.5 µM | potency of inhibition of forskolin-induced Cl− current in the presence of IBMX (CFTR Cl− channel [4]; IBMX (PDE inhibitor) vs forskolin control): not different from that of control | potency of inhibition of apical Cl− current after pretreatment with MK571, compound C or Na2VO3 (CFTR Cl− channel [4]; MRP4, AMPK or protein phosphatase inhibitor): did not alter the potency | IC50 (CFTR Cl− channel [4]; apical Cl− current, regardless of the mechanisms of CFTR activation, read-out: IC50, inhibition of CFTR Cl− channel activity (summary)): ~10 µM and 8 to 10 µM | IC50 (CFTR Cl− channel [4]; forskolin 20 µM, read-out: IC50, inhibition of apical Cl− current induced by forskolin): 8 µM | inhibition of CFTR-mediated apical Cl− current at 100 µM (CFTR Cl− channel [4]; forskolin, CPT-cAMP or genistein, 100 µM): almost complete inhibition | IC50 (CFTR Cl− channel [4]; genistein 20 µM, read-out: IC50, inhibition of apical Cl− current induced by genistein): 10 µM | effect on intracellular cAMP levels [5]: virtually no effect | effect on ouabain-sensitive Isc (Na+-K+ ATPase activity) (Na+-K+ ATPase): no effect | effect on Tl+ influx (NKCC1 activity) ([2]; pretreatment 200 µM): no effect | IC50 ([6]; T84, read-out: IC50, inhibition of cholera toxin (CT)-induced Cl− secretion): ~10 µM | inhibition at 100 µM ([6]; T84, read-out: inhibition of CT-induced Cl− secretion at 100 µM): > 95% | inhibition of V. cholerae-induced intestinal fluid secretion [7]: ~70% | inhibition of CaCC-mediated apical Cl− current at 20 µM ([8]; 20 µM): almost complete inhibition | IC50 ([8]; read-out: IC50, inhibition of CaCC-mediated apical Cl− current, CFTRinh-172 pretreatment, ATP 100 µM): ~1000 nM | inhibition of CT-induced intestinal fluid secretion [9]: ~70% | inhibition of basolateral K+ current induced by ATP at 200 µM [10]: near complete inhibition | effect on ATP-induced CaMKII phosphorylation [11]: unaffected | inhibition of IRC-mediated apical Cl− current at 100 µM ([12]; 100 µM): near complete inhibition | IC50 ([12]; read-out: IC50, inhibition of IRC-mediated apical Cl− current, CFTRinh-172 pretreatment, forskolin 20 µM): ~5 µM | inhibition of CFTR-mediated apical Cl− current at 100 µM (CFTR Cl− channel [13]): near complete inhibition | IC50 (CFTR Cl− channel [13]; 100 µM, read-out: IC50, inhibition of CFTR-mediated apical Cl− current induced by CPT-cAMP): ~10 µM

O=C(O)CN(CCOCCOCCN(CC(=O)O)CC(=O)O)CC(=O)O [EGTA]
effect on FITC-dextran flux, positive control (T84 cell monolayers): markedly increased

O=C(O)c1ccc(/C=C2\SC(=S)N(c3cccc(C(F)(F)F)c3)C2=O)cc1 [CFTRinh-172]
effect on recovered apical Cl− current after washout (CFTR Cl− channel [4]; forskolin, CFTRinh-172 5 µM apical): inhibited | reduction of cholera toxin (CT)-induced intestinal fluid secretion [14]: > 90% | reduction of live V. cholerae-induced intestinal fluid secretion [15]: > 90%
